The values that follow come from ChEMBL document CHEMBL3785011, “New IKK inhibitors: Synthesis of new imidazo[1,2-a]quinoxaline derivatives using microwave assistance and biological evaluation as IKK inhibitors” (Eur J Med Chem, 2016).

The source made the active and inactive calls. The rule behind the calls is not given here.

Assay [1] addresses T1, Inhibitor of nuclear factor kappa-B kinase subunit alpha (Homo sapiens) (UniProt O15111).
T1 sequence (whole entry): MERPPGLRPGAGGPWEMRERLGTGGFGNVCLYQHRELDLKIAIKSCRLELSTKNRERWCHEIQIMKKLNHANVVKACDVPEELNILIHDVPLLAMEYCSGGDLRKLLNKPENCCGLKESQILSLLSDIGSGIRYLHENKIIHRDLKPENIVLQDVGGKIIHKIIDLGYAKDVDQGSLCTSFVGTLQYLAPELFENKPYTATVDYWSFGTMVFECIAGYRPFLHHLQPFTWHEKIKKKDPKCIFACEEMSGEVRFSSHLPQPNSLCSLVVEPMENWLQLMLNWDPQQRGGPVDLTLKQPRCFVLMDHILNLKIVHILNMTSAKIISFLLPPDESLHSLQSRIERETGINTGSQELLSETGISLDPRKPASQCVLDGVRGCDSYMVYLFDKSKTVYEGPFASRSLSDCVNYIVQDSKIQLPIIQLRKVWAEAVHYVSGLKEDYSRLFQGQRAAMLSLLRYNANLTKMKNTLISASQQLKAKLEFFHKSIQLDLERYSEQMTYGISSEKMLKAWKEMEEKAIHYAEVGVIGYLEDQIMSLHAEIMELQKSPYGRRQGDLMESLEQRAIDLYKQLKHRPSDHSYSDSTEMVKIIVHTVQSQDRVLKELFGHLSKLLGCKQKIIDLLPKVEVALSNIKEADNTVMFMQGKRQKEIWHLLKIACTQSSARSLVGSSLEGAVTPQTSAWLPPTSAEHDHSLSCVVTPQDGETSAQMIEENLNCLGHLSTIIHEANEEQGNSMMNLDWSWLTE
The assay is described as follows: Inhibition of human recombinant His tagged IKK1 expressed in baculovirus at 10 uM after 60 mins by Adapta assay.

Assay [2] addresses T2, Inhibitor of nuclear factor kappa-B kinase subunit beta (Homo sapiens) (UniProt O14920).
T2 sequence (whole entry): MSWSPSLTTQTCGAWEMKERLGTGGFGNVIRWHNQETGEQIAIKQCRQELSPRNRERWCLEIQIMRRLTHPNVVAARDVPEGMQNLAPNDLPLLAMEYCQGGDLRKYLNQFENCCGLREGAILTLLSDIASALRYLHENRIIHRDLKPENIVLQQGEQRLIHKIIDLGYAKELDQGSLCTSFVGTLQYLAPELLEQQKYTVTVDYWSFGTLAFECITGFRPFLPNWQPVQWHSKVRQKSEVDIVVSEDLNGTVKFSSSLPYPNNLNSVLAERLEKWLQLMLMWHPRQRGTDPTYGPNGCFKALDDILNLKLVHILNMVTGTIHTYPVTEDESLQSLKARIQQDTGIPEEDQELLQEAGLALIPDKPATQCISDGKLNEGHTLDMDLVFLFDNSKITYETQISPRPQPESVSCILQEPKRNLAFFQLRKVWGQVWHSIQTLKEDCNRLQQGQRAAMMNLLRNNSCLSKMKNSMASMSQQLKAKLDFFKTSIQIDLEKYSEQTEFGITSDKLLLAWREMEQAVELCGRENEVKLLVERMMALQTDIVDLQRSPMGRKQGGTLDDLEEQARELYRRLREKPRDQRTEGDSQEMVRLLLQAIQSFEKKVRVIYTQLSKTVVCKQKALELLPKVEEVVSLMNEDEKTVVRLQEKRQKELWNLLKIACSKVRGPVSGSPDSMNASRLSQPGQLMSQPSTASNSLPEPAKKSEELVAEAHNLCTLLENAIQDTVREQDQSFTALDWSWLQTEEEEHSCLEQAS
The experiment in a line: Inhibition of human recombinant GST tagged IKK2 expressed in baculovirus using Ser/Thr05 peptide as substrate at 10 uM after 60 mins by Z-LYTE assay.

In assay [3] the target is T3, Inhibitor of nuclear factor kappa-B kinase subunit beta (Homo sapiens, UniProt O14920).
T3 sequence (O14920 whole entry): T2 sequence (whole entry)
The assay is described as follows: Inhibition of human recombinant GST tagged IKK2 expressed in baculovirus using Ser/Thr05 peptide as substrate after 60 mins by Z-LYTE assay.

A word on the inhibition: it is the drop in the measured response relative to a control, in per cent. With `CNc1nc2cc(C)ccc2n2c(-c3cccc(OC)c3)cnc12`, the inhibition in assay [1] was 7%. The inhibition entry in assay [2] was “inactive”.
`CNc1nc2cc(C)ccc2n2c(C)cnc12`: the inhibition is 19% in assay [1] and 57% in assay [2].
Regarding `CNc1nc2ccc(C)cc2n2c(-c3cccc(OC)c3)cnc12`, the inhibition in assay [1] and in assay [2] was 3% each time.
`CNc1nc2ccccc2n2c(C)cnc12`: the inhibition in assay [1] came to 7%; in assay [2], 61%.
In the same order, the values of `CNc1nc2ccccc2n2ccnc12` are 7% and 54%.
In the same order, the values of `CNc1nc2ccccc2n2c(-c3cccc(OC)c3)cnc12` are 13% and 2%.
The IC50 is the concentration that inhibits the measured activity by half. On to `CNc1nc2ccc(C)cc2n2ccnc12`, for which the results for the inhibition in assay [1] and in assay [2] were 9% and 64%, respectively. For the same compound, the IC50 in assay [3] was found to be 579 nM.
In the same order, the values of `CNc1nc2ccc(C)cc2n2c(Br)cnc12` are 13%, 72% and 324 nM.
On to `Cc1ccc2nc(NCCN)c3ncc(C)n3c2c1`, for which the values for the inhibition in assay [1] and in assay [2] were 8% and 64%, respectively.
On to `CNc1nc2ccc(C)cc2n2c(C)cnc12`, for which the inhibition in assay [1] came out at 1%; in assay [2], 65%. Besides, the IC50 in assay [3] was 773 nM.
Turning to `CNc1nc2cc(C)ccc2n2ccnc12`, the inhibition was 9% in assay [1] and 50% in assay [2].
`CNc1nc2cc(C)ccc2n2c(Br)cnc12`: the inhibition turned out to be 26% in assay [1] and 54% in assay [2].
In the same order, the values of `CNc1nc2ccccc2n2c(Br)cnc12` are 23% and 60%.
